A word on the Cmax: it is the highest concentration seen after dosing. As usually defined, the Tmax is the time at which the peak concentration occurs.

Results on three compounds are retold here after article PMC10663244 (Investigational New Drugs, 2023).

The structures appear in SMILES notation. Where two headings read alike, the source gives them in different places.

The subject of data set [1] is FGFR2 fusion/rearrangement-positive cholangiocarcinoma (CCA). Further details: method as in PMID 29182496. As to conditions: 108 previously-treated patients; cited from earlier work.
Data set [2] deals with UC. Set-up: method as in PMID 31340094. Conditions: 99 patients with UC; cited from earlier work.
The conditions of data set [3]: cited from earlier work.
Data set [4] has as its system serum phosphate. Put plainly: Pharmacodynamics: serum phosphate level as PD marker for FGFR inhibition. It is filed as in vivo, human (Chinese patients). The protocol: Serum phosphate level was defined as the PD marker in the study for assessing FGFR inhibition. […] Serum phosphate levels were measured using phosphomolybdate UV method (measuring range: 0.31‑20.0 mg/dL) by the central laboratory (Q2 Solutions [Beijing] Co., Ltd.).
Serum samples were analyzed for the concentration of serum phosphate using phosphomolybdate UV method by the central laboratory (Q2 Solutions (Beijing) Co., Ltd.). The concentration of phosphomolybdate formed is directly proportional to the inorganic phosphate concentration and is measured photometrically. Phosphorus quantification was determined in human plasma on Roche/Hitachi cobas c systems. Measuring range was 0.10‑6.46 mmol/L (0.31‑20.0 mg/dL). Reagents: Phosphate (Inorganic) ver.2 (250 tests) Catalouge:03183793 122.

Data set [5] in a line: Plasma pharmacokinetics of pemigatinib (LC–MS/MS, non-compartmental), phase I. The class given is in vivo, human (Chinese patients). As to conditions: for Tmax: read-out: tmax, median (min, max).
Data set [6] in a line: Safety: treatment-emergent adverse events (CTCAE v5.0), phase I. It is filed as in vivo. The protocol: (§1) Tumor was assessed per RECIST v1.1 by investigator at baseline, and every 9 weeks after first dosing. […] Adverse events (AEs) were graded per CTCAE v5.0. […] Sponsor-defined clinically notable TEAEs included hyperphosphatemia, hypophosphatemia, nail toxicities, and serous retinal detachment.
(§2) All statistical analyses were conducted using SAS version 9.4 (or higher).

The test system of data set [7] is advanced malignancies. As to conditions: Japanese population, cited from earlier work.
The subject of data set [8] is serum phosphate. As to conditions: Western population; cited from earlier work.
The conditions of data set [9]: any grade, Japanese patients; cited from earlier work.
Data set [10] has as its system FGF/FGFR alterations and advanced malignancies. As to conditions: Western patients, cited from earlier work.
Data set [11] has as its system FGF/FGFR1-3 altered, advanced solid tumors. Put plainly: Antitumor activity per RECIST v1.1 by investigator, phase I. It is filed as in vivo, human (Chinese patients). Conditions: 12 patients. The procedure: Tumor response was assessed by investigator according to Response Evaluation Criteria in Solid Tumors (RECIST) v1.1 every 9 weeks after first dosing.
as §1, §2
The Clopper-Pearson method was used to calculate the 95% confidence interval (CI) of ORR and DCR. The Kaplan–Meier method and the Brookmeyer and Crowley method were used to estimate PFS.

For data set [12] the following is noted: Western population, steady state, cited from earlier work.
[13] abbreviates: 13.5 mg oral QD, C1D14 (steady state), N=12.

Consider `CCN1CCN(c2ccc(Nc3cc(N(C)C(=O)Nc4c(Cl)c(OC)cc(OC)c4Cl)ncn3)cc2)CC1` [Infigratinib], for which the ORR in data set [1] was 23.1%.

For the compound `COc1cc(OC)cc(N(CCNC(C)C)c2ccc3ncc(-c4cnn(C)c4)nc3c2)c1` [erdafitinib], in data set [2], the “Overall objective response rate (ORR)” value was 40%.

As to `CCN1C(=O)N(c2c(F)c(OC)cc(OC)c2F)Cc2cnc3[nH]c(CN4CCOCC4)cc3c21` [pemigatinib], the Incidence of hyperphosphataemia in [3] (any grade, Western patients) is reported as 75%. Besides, the Incidence of hyperphosphataemia in data set [3] (grade ≥ 3, Western patients) was 2.3%. In addition, in data set [4] (days 8 and 15 of cycle 1, 13.5 mg QD, 11 patients, CV% 31.3%), the “Serum phosphate level increase, mean” value was determined as 2.25 mg/dL. Moreover, the “Serum phosphate concentration change from baseline, geomean (CV%)” value in data set [4] (days 8 and 15 of cycle 1, Chinese patients) is listed as 2.15 (32.9%) mg/dL. Also, the “Serum phosphate level after 1 week off” value in data set [4] (post 1 week off/intermission) is recorded as “decreased to baseline”. In addition, in data set [4] (subsequent treatment after cycle 1), the “Serum phosphorus during subsequent treatment” value is “remained below or near the baseline levels”. For the same compound, in data set [5] (setting [13]), the “CLss/F, geometric mean” value turned out to be 11.8 L/h; the “CLss/F, mean ± STD” value stood at 13.3 ± 7.2 L/h; the “Cmin,ss, geometric mean” value was 49.8 nM; the “tmax, median (min, max)” value was 1.99 (0.5, 23.2) h. Also, the “AUCss,0-24, geomean” value in data set [5] (Chinese patients, steady state, 13.5 mg QD) stood at 2.6369 µM·h. In data set [5] (Chinese patients, steady state, 13.5 mg QD, read-out: Cmax,ss, geomean), the Cmax came out at 215 nM. Moreover, in data set [5] (human, plasma, po, 13.5 mg, 13.5 mg oral QD, C1D1, N=12, read-out: AUC0-24, geometric mean (converted)), the AUC(0-t) was 2.13 µM·h. Also, the AUC(0-t) in [5] (human, plasma, po, 13.5 mg, 13.5 mg oral QD, C1D1, N=12, read-out: AUC0-24, mean ± STD) worked out at 2.24 ± 0.861 µM·h. In addition, the Cmax in [5] (human, plasma, po, 13.5 mg, 13.5 mg oral QD, C1D1, N=12, read-out: Cmax, geometric mean (converted)) was 154 nM. The Cmax in data set [5] (human, plasma, po, 13.5 mg, 13.5 mg oral QD, C1D1, N=12, read-out: Cmax, mean ± STD) was 190 ± 108 nM. Besides, the Tmax in [5] (human, plasma, po, 13.5 mg, 13.5 mg oral QD, C1D1, N=12) is roughly 1.52 h. The AUC in data set [5] (human, plasma, po, 13.5 mg, 13.5 mg oral QD, C1D14 (steady state), N=12, read-out: AUCss,0-24, geometric mean (converted)) is 2.64 µM·h. Besides, the AUC in data set [5] (human, plasma, po, 13.5 mg, 13.5 mg oral QD, C1D14 (steady state), N=12, read-out: AUCss,0-24, mean ± STD) came to 2.94 ± 1.44 µM·h. In addition, the Cmax in [5] (human, plasma, po, 13.5 mg, 13.5 mg oral QD, C1D14 (steady state), N=12, read-out: Cmax,ss, geometric mean (converted)) was 215 nM. Moreover, in [5] (human, plasma, po, 13.5 mg, 13.5 mg oral QD, C1D14 (steady state), N=12, read-out: Cmax,ss, mean ± STD), the Cmax stood at 246 ± 115 nM. In addition, the Vd/F in [5] (human, plasma, po, 13.5 mg, 13.5 mg oral QD, C1D14 (steady state), N=12, read-out: Vz/F, geometric mean (converted)) was 170 L. The Vd/F in [5] (human, plasma, po, 13.5 mg, 13.5 mg oral QD, C1D14 (steady state), N=12, read-out: Vz/F, mean ± STD) turned out to be 179 ± 60.4 L. Also, the Tmax in data set [5] (human, plasma, po, 13.5 mg, 13.5 mg oral QD, C1D14 (steady state), N=12) was roughly 1.99 h. For the same compound, the half-life in data set [5] (human, plasma, po, 13.5 mg, 13.5 mg oral QD, C1D14 (steady state), N=12, read-out: t½ (elimination half-life), geometric mean (converted)) was 11.3 h. In data set [5] (human, plasma, po, 13.5 mg, 13.5 mg oral QD, C1D14 (steady state), N=12, read-out: t½, mean ± STD (converted)), the half-life is 11.8 ± 4 h. In addition, the “TEAEs leading to treatment interruption/discontinuation or death” value in data set [6] (12 patients) is listed as “No TEAEs led to treatment interruption/discontinuation or death”. In data set [6] (human, in vivo), the Anaemia is recorded as 6 (50.0) n (%), the “Blood alkaline phosphatase increased” value is reported as 0 n (%), the Blood bilirubin increased is 0 n (%) and the “Blood lactate dehydrogenase increased” value is 0 n (%). In addition, in [6] (human, in vivo), the Decreased appetite is reported as 6 (50.0) n (%), the Diarrhoea is 0 n (%), the Gamma-glutamyltransferase increased is 1 (8.3) n (%) and the Hypoalbuminaemia is 6 (50.0) n (%). In data set [6] (human, in vivo), the Hypochloraemia is 0 n (%), the Incidence of anaemia turned out to be 50.0%, the Incidence of arthralgia turned out to be 8.3% and the “Incidence of decreased appetite” value stood at 50.0%. Also, in data set [6] (human, in vivo), the “Incidence of gamma-glutamyltransferase increased” value was determined as 8.3%, the Incidence of hypercalcaemia is listed as 8.3%, the Incidence of hypoalbuminaemia is 50.0% and the “Incidence of hypophosphatemia (clinically-notable TEAE)” value came to 25.0%. In addition, in data set [6] (human, in vivo), the “Incidence of lipase increased” value is recorded as 8.3%, the “Incidence of nail discolouration (clinically-notable TEAE)” value worked out at 8.3%, the “Incidence of nail disorder (clinically-notable TEAE)” value amounted to 16.7% and the “Incidence of nail toxicity (clinically-notable TEAE)” value is recorded as 16.7%. Moreover, in [6] (human, in vivo), the Incidence of proteinuria turned out to be 8.3%, the “Low density lipoprotein increased” value is given as 0 n (%), the “Patients with dose reduction due to proteinuria” value is 8.3% and the “Patients with grade ≥ 3 TEAEs” value came to 25.0%. Also, in data set [6] (human, in vivo), the “Patients with grade ≥ 3 treatment-related AEs” value amounted to 16.7%, the Proteinuria is given as 1 (8.3) n (%) and the Weight decreased is given as 0 n (%). For the same compound, in data set [6] (in vivo), the “Ocular toxicity (vision blurred of grade 1)” value is “only one patient experienced ocular toxicity” and the “Serious TEAEs” value is given as “No serious TEAEs occurred”. Further, the Objective response rate in data set [7] (Fight-102, 1/25) is on record as 4.0%. The Disease control rate in data set [7] (Fight-102) is 40.0%. Also, the “Serum phosphate concentration change from baseline, geomean (CV%)” value in data set [8] was 2.6 (40.4%) mg/dL. In addition, in data set [9], the Incidence of hyperphosphataemia is reported as 76%. Moreover, in [10] (Fight-101, 3/13), the “ORR for patients with FGFR mutations” value is on record as 23.1%. Further, in data set [10] (Fight-101, 5/20), the “ORR for patients with FGFR fusions/rearrangements” value was 25.0%. In data set [10] (Fight-101), the Disease control rate is given as 40.6% and the Objective response rate was 9.4%. Further, the “Objective response rate (ORR)” value in data set [11] (13.5 mg QD 2-weeks-on/1-week-off, confirmed) turned out to be 16.7%. Also, the “Best overall confirmed response: Partial response” value in data set [11] is reported as 2 (16.7%) n (%). Besides, in data set [11] (95% CI […] - 48.4%), the Objective response rate is on record as 2 (16.7%) n (%). Further, the “AUCss,0-24, geomean” value in data set [12] was 2.62 µM·h. For the same compound, the Cmax in data set [12] (read-out: Cmax,ss, geomean) was 236 nM.
